“Also recorded” adds a separate entry of the source.
Assays:
MDA-231 xenografts = test: MDA-231 human breast cancer xenograft model in nude mice
Description: After the end of the treatment the animals were kept for 30 more days and then the animals were sacrificed on day 60. Data shown are means±S.E.M. (n=10).
Biological Evaluation In Vivo. […] Twice weekly tumor sizes and body weights were recorded for all animals for the 30 days of treatment as well for 30 days after the end of the treatment. At that time the animals were sacrificed and the tumors were removed and processed for immunohistochemistry. Animal care was in accordance with institutional guidelines. […] Statistical Analysis.

MDA-231 cells [1] = test: BrdU cell proliferation assay, MDA-231
Description: 4 h prior to the end of incubation, bromodeoxyuridine (BrdU) was added to each well. Incorporation of BrdU was measured at 450 nm (reference=700 nm). Data points represent the mean±S.D. of four independent experiments carried out in quadruplicate.
4 h prior to the end of incubation, bromodeoxyuridine (BrdU) was added to each well. Incorporation of BrdU was measured at 450 nm (reference=700 nm). Data points represent the mean±S.D. of two independent experiments carried out in quadruplicate.
MDA-231 cells grown in 96-well plates were washed with PBS and cultured in media supplemented with 10% FBS in the presence or absence of either 2 μg/ml or 20 μg/ml GKB for 48 hours. 4 h prior to the end of incubation, bromodeoxyuridine (BrdU) was added to each well. Incorporation of BrdU was measured at 450 nm (reference=700 nm). Data points represent the mean±S.D. of two independent experiments carried out in quadruplicate.
Cell lines were cultured on polystyrene culture dishes (Corning) and grown in Dulbecco's modified Eagle medium (DMEM) supplemented with 10% fetal bovine serum (FBS). […] BrdU Cell Proliferation Assays. MDA-231 cells were plated on 96-well plates (Corning, Corning, N.J.) at a concentration of approximately 10,000 cells/well (24 h incubation) or approximately 5,000 cells/well (48 h incubation) in DMEM supplemented with 0.1% FBS. […] Differences in cell proliferation were analyzed by measuring the amount of 5-bromo-2′deoxyuridine (BrdU) incorporation determined by the BrdU ELISA (Boehringer Mannheim, Indianapolis, Ind.). Incorporation of BrdU was measured at 450 nm (reference at 690 nm).

[2] = system: MDA-231 cell free radical production; test: Analysis of oxidative stress (2,7-DCF fluorescent probe) in MDA-231 cells; assay type: cell-based, human
Excerpt: (§1) Cell Culture and Treatments. […] Radioligand Binding Assays. […] RNA (Northern) Analysis. […] Nucleic Acid Arrays. […] BrdU Cell Proliferation Assays. […] Analysis of oxidative stress. […] Biological Evaluation In Vivo. […] Immunocytochemistry of MDA-231 tumors. […] Statistical Analysis. […] (FIG. 5).

PBR = test: Immunocytochemistry of MDA-231 tumors with anti-PBR antiserum; assay type: in vivo, human; settings: 50 mg/kg EGB 761® per os or 1 mg/kg GKB ip
Description: Formalin embedded sections of MDA-231 xenografts were immunostained with an anti-PBR antiserum at 1:500 dilution as described in the Materials and Methods section. MDA-231 tumors were obtained from animals treated with vehicle (A–D), 50 mg/kg EGB 761® per os (E, G), or 1 mg/kg GKB ip (F, H). […] Arrowheads indicate nuclei. Magnification is ×75 for A, B, C, E, F, G, and H and ×150 for […].
as §1

[3] = system: peripheral-type benzodiazepine receptor (PBR); test: PBR ligand binding capacity of treated MDA-231 cells ([3H]PK 11195 saturation binding, Scatchard analysis); assay type: cell-based, human; settings: % of control values
Excerpt: as §1

MCF-7 cells = test: BrdU cell proliferation assay, MCF-7; assay type: cell-based, human; settings: 48 hours, 20 or 200 μg/ml EGB 761® or 2 or 20 μg/ml GKB; compared with MDA-231
Excerpt: as §1

PBR mRNA = test: RNA (Northern) blot analysis of PBR mRNA in MDA-231 cells; assay type: cell-based, human; settings: 48 hours, 20 or 200 μg/ml EGB 761® or 2 or 20 μg/ml GKB
Excerpt: as §1

MDA-231 cells [4] = test: Additional cytotoxicity assays; assay type: cell-based; settings: human
Excerpt: It is of interest to note that even in the presence of high concentrations of either EGB 761® or GKB, PBR levels and rates of cell proliferation could not be reduced below 30% of normal values. […] It should be also noted that even at the highest concentrations used, neither EGB 761® nor GKB were toxic for the cells, because cell proliferation recovered upon removal of the compounds.

## C[C@@H]1C(=O)O[C@H]2[C@H](O)C34[C@H]5C[C@@H](C(C)(C)C)C36C(O)C(=O)O[C@H]6O[C@@]4(C(=O)O5)[C@@]12O (some centres unmarked) [GKB, ginkgolide B]
MDA-231 xenografts; 1 mg/kg ip once a day for 30 days, measured a month after the end of the treatment, p=0.043
  decrease in tumor size: 32%
MDA-231 xenografts; 30 days treatment, 50 mg/kg EGB 761® or 1 mg/kg GKB, data not shown
  animal body weight: did not affect
MDA-231 cells [1]; 10% FBS, EGB 761® up to 96 h, GKB 2 or 20 μg/ml 48 hours
  MDA-231 cell proliferation (BrdU incorporation): significantly altered; also recorded: inhibited
MDA-231 cells [1]; highest concentrations used
  toxicity for the cells (recovery of proliferation upon removal): cytostatic and not cytotoxic
[2]
  effect on free radical / reactive oxygen species production: absence of any significant decrease
PBR
  nuclear PBR expression in cells found in the middle of the tumor: reduced
PBR; cytosolic immunostaining could be seen
  nuclear PBR expression in the cells at the edge of the tumors: eliminated
[3]
  decrease of PBR levels (PBR ligand binding capacity, Bmax): 66%
MCF-7 cells
  MCF-7 cell proliferation (BrdU incorporation): altered to a lesser degree
PBR mRNA
  PBR mRNA levels: reduced
MDA-231 cells [4]
  cell death: neither EGB 761® nor GKB induced any significant cell death

— patent US7078434B1, “Use of Ginkgo extract” (Societe de Conseils de Recherches et d'Applications …, priority 1999, dated 2006)
